What was measured:
His-Brd4(44-477) = His-Brd4(44-477) (Homo sapiens (Human), UniProt O60885); test: TR-FRET in-vitro binding assay for BRD4; settings: biochemical
Method in brief: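 Assay buffer HEPES pH 7.5/NaCl/Tween20/BSA; protein solution 45 nM, peptide solution 60 nM acetyl-H4 (AcK5,8,12,16). Incubated 30 °C for 35 min; Eu-anti-His6 and SA-APC detection, TR-FRET read.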

[1] = biological target: nuclear BRD4-NUT foci in HCC2494 NUT midline carcinoma cells (Homo sapiens (Human), UniProt O60885+Q86Y26); test: Nut-foci formation assay; assay type: cell-based; settings: 24 hours, read-out: HCS Brd4-NUT IC50
Method in brief: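 Read-out is number and intensity of nuclear NUT foci by immunofluorescence imaging, relative to 0.1% DMSO set as 100. Compounds were tested as 3-fold series starting at 10 μM on HCC2494 NUT midline carcinoma cells for 24 h. Four-parameter fitting gave IC50.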

[2] = biological target: His-CREBBP (1081-1197) bromodomain (Homo sapiens (Human), UniProt Q92793); test: AlphaScreen in-vitro binding assay for CREBBP; settings: biochemical
Method in brief: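 Ni-chelate acceptor and streptavidin donor beads (45 µg/mL each, in 50 mM HEPES pH 7.5, 150 mM NaCl, 0.02% BSA) were then added for 60 min at room temperature. IC50 came from 8-point non-linear regression.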

His-CREBBP (1081-1197) bromodomain, sequence (Q92793 1081-1197): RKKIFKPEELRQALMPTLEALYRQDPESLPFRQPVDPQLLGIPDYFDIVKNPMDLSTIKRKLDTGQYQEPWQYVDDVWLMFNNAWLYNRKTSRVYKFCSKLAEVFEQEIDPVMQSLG

Structure (SMILES)	IC50 (His-Brd4(44-477))	IC50 [1]	IC50 [2]
Cc1nn(-c2ccnn2C)c2c1C(c1ccc(Cl)cc1)N(c1cc(C)c3nnc(C)n3n1)C2=O (stereo not drawn) [Example 114, 4-(4-chlorophenyl)-5-(3,8-dimethyl-[1,2,4]triazolo[4,3-b]pyridazin-6-yl)-3-methyl-1-(1-methyl-1H-pyrazol-5-yl)-4,5-dihydropyrrolo[3,4-c]pyrazol-6(1H)-one]	0.027 µM	0.0232 µM	> 37 µM
Cc1nn(C2COC2)c2c1C(c1ccc(Cl)cc1)N(c1cc(C)c3nnc(C)n3c1)C2=O (stereo not drawn) [Example 137, 4-(4-chlorophenyl)-5-(3,8-dimethyl-[1,2,4]triazolo[4,3-a]pyridin-6-yl)-3-methyl-1-(oxetan-3-yl)-4,5-dihydropyrrolo[3,4-c]pyrazol-6(1H)-one]	0.08 µM	0.0577 µM	> 37 µM
Cn1cc(N2C(=O)c3c(c(C(F)(F)F)nn3C3CC3)C2c2ccc(Cl)cc2)cc(Cl)c1=O (stereo not drawn) [Example 44, 5-(5-chloro-1-methyl-6-oxo-1,6-dihydropyridin-3-yl)-4-(4-chlorophenyl)-1-cyclopropyl-3-(trifluoromethyl)-4,5-dihydropyrrolo[3,4-c]pyrazol-6(1H)-one]	0.21 µM	0.164 µM	3.9 µM
Cc1nn(C2CC2)c2c1C(c1ccc(Cl)cc1)N(c1cc(N(C)C(=O)OC(C)(C)C)c3nnc(C)n3n1)C2=O (stereo not drawn) [Example 112, tert-butyl (6-(4-(4-chlorophenyl)-1-cyclopropyl-3-methyl-6-oxopyrrolo[3,4-c]pyrazol-5(1H,4H,6H)-yl)-3-methyl-[1,2,4]triazolo[4,3-b]pyridazin-8-yl)(methyl)carbamate]	> 37 µM	3.35 µM	> 37 µM
COc1ncc(-n2nc(C)c3c2C(=O)N(c2cc(C)c(=O)n(C)c2)C3c2ccc(Cl)cc2)c(OC)n1 (racemic) [Example 52, 4-(4-chlorophenyl)-1-(2,4-dimethoxypyrimidin-5-yl)-5-(1,5-dimethyl-6-oxo-1,6-dihydropyridin-3-yl)-3-methyl-4,5-dihydropyrrolo[3,4-c]pyrazol-6(1H)-one]	0.087 µM	0.117 µM	5.7 µM
Cc1ncccc1-n1nc2c(c1C)C(c1ccc(Cl)cc1)N(c1cc(C)c(=O)n(C)c1)C2=O (stereo not drawn) [Example 81, 4-(4-chlorophenyl)-5-(1,5-dimethyl-6-oxo-1,6-dihydropyridin-3-yl)-3-methyl-2-(2-methylpyridin-3-yl)-4,5-dihydropyrrolo[3,4-c]pyrazol-6(2H)-one]	0.11 µM	0.0743 µM	0.92 µM
Cc1nn(-c2ccnn2C)c2c1[C@H](c1ccc(Cl)cc1)N(c1cc(C)c3nnc(C)n3c1)C2=O [Example 124, (S)-4-(4-chlorophenyl)-5-(3,8-dimethyl-[1,2,4]triazolo[4,3-a]pyridin-6-yl)-3-methyl-1-(1-methyl-1H-pyrazol-5-yl)-4,5-dihydropyrrolo[3,4-c]pyrazol-6(1H)-one]	25 µM	1.73 µM	> 37 µM
CCOc1c2c(nn1C)C(=O)N(c1cc(C)c(=O)n(C)c1)C2c1ccc(Cl)cc1 (stereo not drawn) [Example 76, 4-(4-chlorophenyl)-5-(1,5-dimethyl-6-oxo-1,6-dihydropyridin-3-yl)-3-ethoxy-2-methyl-4,5-dihydropyrrolo[3,4-c]pyrazol-6(2H)-one]	0.12 µM	0.106 µM	2.9 µM
Cc1cc(N2C(=O)c3nn(C4CN(C)C4)c(C)c3C2c2ccc(Cl)cc2)cn2c(C)nnc12 (stereo not drawn) [Example 158, 4-(4-chlorophenyl)-5-(3,8-dimethyl-[1,2,4]triazolo[4,3-a]pyridin-6-yl)-3-methyl-2-(1-methylazetidin-3-yl)-4,5-dihydropyrrolo[3,4-c]pyrazol-6(2H)-one]	0.082 µM	0.103 µM	3.3 µM
COc1ncc(-n2nc3c(c2C)C(c2ccc(Cl)cc2)N(c2cc(Cl)c(=O)n(C)c2)C3=O)c(OC)n1 (stereo not drawn) [Example 55, 5-(5-chloro-1-methyl-6-oxo-1,6-dihydropyridin-3-yl)-4-(4-chlorophenyl)-2-(2,4-dimethoxypyrimidin-5-yl)-3-methyl-4,5-dihydropyrrolo[3,4-c]pyrazol-6(2H)-one]	0.15 µM	0.0541 µM	0.6 µM

Reference: patent US8975417B2, “Pyrazolopyrrolidine derivatives and their use in the treatment of disease” (Novartis AG, priority 2013, dated 2015)
